In patent publication US10669283B2, “Compound and pharmacologically acceptable salt thereof” (MEIJI SEIKA PHARMA CO., LTD., priority 2016, dated 2020):

Test system: PDE4
Assay: PDE4 inhibition, scintillation proximity assay (SPA);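 also: A below 100 nM B 100 to below 1000 nM C 1000 nM or more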
Assay type: biochemical
Details: scintillation proximity assay (SPA); evaluated as classes A, B, C; read-out: PDE4 Inhibitory Activity (concentration for the inhibition rate of 50%)
Procedure, shortened: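 Compound pre-diluted 1:10 in 50 mM Tris-HCl pH 7.4, 8.3 mM MgCl2, 1.7 mM EGTA, 3 mg/mL BSA, then incubated with PDE4 and [2,8-3H]-cAMP for 120 min at room temperature. Product captured on ZnSO4-containing YSi-SPA beads for 15 min; radioactivity counted against no-enzyme blank and DMSO control.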

## COC(C)c1cc(-c2nccs2)c2oc(N3CC4CCC(C3)N4)nc2c1OC(F)(F)F (centres unmarked) [Example 210, 2-(3,8-Diazabicyclo[3.2.1]octan-3-yl)-5-(1-methoxyethyl)-7-(thiazol-2-yl)-4-(trifluoromethoxy)benzo[d]oxazole]
  IC50: < 100 nM

## COC(C)c1cc(-c2nccs2)c2oc(N3CC4CC(C3)N4)nc2c1OC(F)(F)F (centres unmarked) [Example 211, 2-(3,6-Diazabicyclo[3.1.1]heptan-3-yl)-5-(1-methoxyethyl)-7-(thiazol-2-yl)-4-(trifluoromethoxy)benzo[d]oxazole]
  IC50: < 100 nM

## CC(=O)c1cc(-c2nccs2)c2oc(N3CC4CC(C3)N4)nc2c1OC(F)(F)F [Example 212, 1-(2-(3,6-Diazabicyclo[3.1.1]heptan-3-yl)-7-(thiazol-2-yl)-4-(trifluoromethoxy)benzo[d]oxazol-5-yl)ethan-1-one]
  IC50: < 100 nM

## CC(=O)c1cc(-c2nccs2)c2oc(N3CC4CCC(C3)N4)nc2c1OC(F)(F)F [Example 213, 1-(2-(3,8-Diazabicyclo[3.2.1]octan-3-yl)-7-(thiazol-2-yl)-4-(trifluoromethoxy)benzo[d]oxazol-5-yl)ethan-1-one]
  IC50: < 100 nM

## COC(C)(c1cc(-c2nccs2)c2oc(N3CC4CC(C3)N4)nc2c1OC(F)(F)F)C(F)(F)F (centres unmarked) [Example 214, 2-(3,6-Diazabicyclo[3.1.1]heptan-3-yl)-7-(thiazol-2-yl)-5-(1,1,1-trifluoro-2-methoxypropan-2-yl)-4-(trifluoromethoxy)benzo[d]oxazole]
  IC50: < 100 nM

## COC(C)(c1cc(-c2nccs2)c2oc(N3CC4CCC(C3)N4)nc2c1OC(F)(F)F)C(F)(F)F (centres unmarked) [Example 215, 2-(3,8-Diazabicyclo[3.2.1]octan-3-yl)-7-(thiazol-2-yl)-5-(1,1,1-trifluoro-2-methoxypropan-2-yl)-4-(trifluoromethoxy)benzo[d]oxazole]
  IC50: < 100 nM

## CC(O)(c1cc(-c2nccs2)c2oc(N3CC4CC(C3)N4)nc2c1OC(F)(F)F)C(F)(F)F (centres unmarked) [Example 216, 2-(2-(3,6-Diazabicyclo[3.1.1]heptan-3-yl)-7-(thiazol-2-yl)-4-(trifluoromethoxy)benzo[d]oxazol-5-yl)-1,1,1-trifluoropropan-2-ol]
  IC50: < 100 nM

## CC(O)(c1cc(-c2nccs2)c2oc(N3CC4CCC(C3)N4)nc2c1OC(F)(F)F)C(F)(F)F (centres unmarked) [Example 217, 2-(2-(3,8-Diazabicyclo[3.2.1]octan-3-yl)-7-(thiazol-2-yl)-4-(trifluoromethoxy)benzo[d]oxazol-5-yl)-1,1,1-trifluoropropan-2-ol]
  IC50: < 100 nM

## CCOC(c1ccc(-c2nccs2)c2oc(N3CC4CCC(C3)N4)nc12)C(F)(F)F (centres unmarked) [Example 220, 2-(3,8-Diazabicyclo[3.2.1]octan-3-yl)-4-(1-ethoxy-2,2,2-trifluoroethyl)-7-(thiazol-2-yl)benzo[d]oxazole]
  IC50: < 100 nM

## FC(F)(F)COC(c1ccc(-c2nccs2)c2oc(N3CC4CCC(C3)N4)nc12)C(F)(F)F (centres unmarked) [Example 221, 2-(3,8-Diazabicyclo[3.2.1]octan-3-yl)-7-(thiazol-2-yl)-4-(2,2,2-trifluoro-1-(2,2,2-trifluoroethoxy)ethyl)benzo[d]oxazole]
  IC50: < 100 nM

## COC(c1ccc(-c2nccs2)c2oc(N3CC4CCC(C3)N4)nc12)C(F)(F)F (centres unmarked) [Example 222, 2-(3,8-Diazabicyclo[3.2.1]octan-3-yl)-7-(thiazol-2-yl)-4-(2,2,2-trifluoro-1-methoxyethyl)benzo[d]oxazole]
  IC50: < 100 nM

## FC(F)(F)COC(c1ccc(-c2nccs2)c2oc(N3CC4CC(C3)N4)nc12)C(F)(F)F (centres unmarked) [Example 223, 2-(3,6-Diazabicyclo[3.1.1]heptan-3-yl)-7-(thiazol-2-yl)-4-(2,2,2-trifluoro-1-(2,2,2-trifluoroethoxy)ethyl)benzo[d]oxazole]
  IC50: < 100 nM

## CCOC(c1ccc(-c2nccs2)c2oc(N3CC4CC(C3)N4)nc12)C(F)(F)F (centres unmarked) [Example 224, 2-(3,6-Diazabicyclo[3.1.1]heptan-3-yl)-4-(1-ethoxy-2,2,2-trifluoroethyl)-7-(thiazol-2-yl)benzo[d]oxazole]
  IC50: < 100 nM

## OCCOC(c1ccc(-c2nccs2)c2oc(N3CC4CCC(C3)N4)nc12)C(F)(F)F (centres unmarked) [Example 225, 2-(1-(2-(3,8-Diazabicyclo[3.2.1]octan-3-yl)-7-(thiazol-2-yl)benzo[d]oxazol-4-yl)-2,2,2-trifluoroethoxy)ethan-1-ol]
  IC50: < 100 nM

## N#CCOC(c1ccc(-c2nccs2)c2oc(N3CC4CC(C3)N4)nc12)C(F)(F)F (centres unmarked) [Example 226, 2-(1-(2-(3,6-Diazabicyclo[3.1.1]heptan-3-yl)-7-(thiazol-2-yl)benzo[d]oxazol-4-yl)-2,2,2-trifluoroethoxy)acetonitrile]
  IC50: < 100 nM

## OCCOC(c1ccc(-c2nccs2)c2oc(N3CC4CC(C3)N4)nc12)C(F)(F)F (centres unmarked) [Example 227, 2-(1-(2-(3,6-Diazabicyclo[3.1.1]heptan-3-yl)-7-(thiazol-2-yl)benzo[d]oxazol-4-yl)-2,2,2-trifluoroethoxy)ethan-1-ol]
  IC50: < 100 nM

## N#CCOC(c1ccc(-c2nccs2)c2oc(N3CC4CCC(C3)N4)nc12)C(F)(F)F (centres unmarked) [Example 228, 2-(1-(2-(3,8-Diazabicyclo[3.2.1]octan-3-yl)-7-(thiazol-2-yl)benzo[d]oxazol-4-yl)-2,2,2-trifluoroethoxy)acetonitrile]
  IC50: < 100 nM

## COCCOC(c1ccc(-c2nccs2)c2oc(N3CC4CC(C3)N4)nc12)C(F)(F)F (centres unmarked) [Example 229, 2-(3,6-Diazabicyclo[3.1.1]heptan-3-yl)-7-(thiazol-2-yl)-4-(2,2,2-trifluoro-1-(2-methoxyethoxy)ethyl)benzo[d]oxazole]
  IC50: < 100 nM

## OC1(COC(c2ccc(-c3nccs3)c3oc(N4CC5CC(C4)N5)nc23)C(F)(F)F)CC1 (centres unmarked) [Example 232, 1-((1-(2-(3,6-Diazabicyclo[3.1.1]heptan-3-yl)-7-(thiazol-2-yl)benzo[d]oxazol-4-yl)-2,2,2-trifluoroethoxy)methyl)cyclopropan-1-ol]
  IC50: < 100 nM

## OC(O)(c1ccc(-c2nccs2)c2oc(N3CC4CCC(C3)N4)nc12)C(F)(F)F [Example 233, 1-(2-(3,8-Diazabicyclo[3.2.1]octan-3-yl)-7-(thiazol-2-yl)benzo[d]oxazol-4-yl)-2,2,2-trifluoroethane-1,1-diol]
  IC50: < 100 nM

## CC(O)(c1ccc(-c2nccs2)c2oc(N3CC4CC(C3)N4)nc12)C(F)(F)F (centres unmarked) [Example 234, 2-(2-(3,6-Diazabicyclo[3.1.1]heptan-3-yl)-7-(thiazol-2-yl)benzo[d]oxazol-4-yl)-1,1,1-trifluoropropan-2-ol]
  IC50: < 100 nM

## COC(C)(c1ccc(-c2nccs2)c2oc(N3CC4CC(C3)N4)nc12)C(F)(F)F (centres unmarked) [Example 235, 2-(3,6-Diazabicyclo[3.1.1]heptan-3-yl)-7-(thiazol-2-yl)-4-(1,1,1-trifluoro-2-methoxypropan-2-yl)benzo[d]oxazole]
  IC50: < 100 nM

## CC(O)(c1ccc(-c2nccs2)c2oc(N3CC4CCC(C3)N4)nc12)C(F)(F)F (centres unmarked) [Example 236, 2-(2-(3,8-Diazabicyclo[3.2.1]octan-3-yl)-7-(thiazol-2-yl)benzo[d]oxazol-4-yl)-1,1,1-trifluoropropan-2-ol]
  IC50: < 100 nM

## COC(=O)c1ccc(-c2nccs2)c2oc(N3CC4CCC(C3)N4)nc12 [Example 237, Methyl 2-(3,8-diazabicyclo[3.2.1]octan-3-yl)-7-(thiazol-2-yl) benzo[d]oxazole-4-carboxylate]
  IC50: < 100 nM

## O=C(O)c1ccc(-c2nccs2)c2oc(N3CC4CCC(C3)N4)nc12 [Example 238, 2-(3,8-Diazabicyclo[3.2.1]octan-3-yl)-7-(thiazol-2-yl) benzo[d]oxazole-4-carboxylic acid]
  IC50: < 100 nM

## CC(O)c1ccc(-c2nccs2)c2oc(N3CC4CCCC(C3)N4)nc12 (centres unmarked) [Example 239, 1-(2-(3,9-Diazabicyclo[3.3.1]nonan-3-yl)-7-(thiazol-2-yl)benzo[d]oxazol-4-yl)ethan-1-ol]
  IC50: < 100 nM

## CC(O)c1ccc(-c2nccs2)c2oc(N3CC4CC(C3)N4)nc12 (centres unmarked) [Example 240, 1-(2-(3,6-Diazabicyclo[3.1.1]heptan-3-yl)-7-(thiazol-2-yl)benzo[d]oxazol-4-yl)ethan-1-ol]
  IC50: < 100 nM

## COC(C)c1ccc(-c2nccs2)c2oc(N3CC4CC(C3)N4)nc12 (centres unmarked) [Example 241, 2-(3,6-Diazabicyclo[3.1.1]heptan-3-yl)-4-(1-methoxyethyl)-7-(thiazol-2-yl)benzo[d]oxazole]
  IC50: < 100 nM

## COC(C)c1ccc(-c2nccs2)c2oc(N3CC4CCC(C3)N4)nc12 (centres unmarked) [Example 242, 2-(3,8-Diazabicyclo[3.2.1]octan-3-yl)-4-(1-methoxyethyl)-7-(thiazol-2-yl)benzo[d]oxazole]
  IC50: < 100 nM

## COC(C)c1ccc(-c2nccs2)c2oc(N3CC4CCCC(C3)N4)nc12 (centres unmarked) [Example 243, 2-(3,9-Diazabicyclo[3.3.1]nonan-3-yl)-4-(1-methoxyethyl)-7-(thiazol-2-yl)benzo[d]oxazole]
  IC50: < 100 nM

## CC(=O)c1ccc(-c2nccs2)c2oc(N3CC4CC(C3)N4)nc12 [Example 244, 1-(2-(3,6-Diazabicyclo[3.1.1]heptan-3-yl)-7-(thiazol-2-yl)benzo[d]oxazol-4-yl)ethan-1-one]
  IC50: < 100 nM

## CC(=O)c1ccc(-c2nccs2)c2oc(N3CC4CCC(C3)N4)nc12 [Example 245, 1-(2-(3,8-Diazabicyclo[3.2.1]octan-3-yl)-7-(thiazol-2-yl)benzo[d]oxazol-4-yl)ethan-1-one]
  IC50: < 100 nM

## CC(C)(O)c1ccc(-c2nccs2)c2oc(N3CC4CCC(C3)N4)nc12 [Example 247, 2-(2-(3,8-Diazabicyclo[3.2.1]octan-3-yl)-7-(thiazol-2-yl)benzo[d]oxazol-4-yl)propan-2-ol]
  IC50: < 100 nM

## O=C(O)COC(c1ccc(-c2nccs2)c2oc(N3CC4CC(C3)N4)nc12)C(F)(F)F (centres unmarked) [Example 253, 2-(1-(2-(3,6-Diazabicyclo[3.1.1]heptan-3-yl)-7-(thiazol-2-yl)benzo[d]oxazol-4-yl)-2,2,2-trifluoroethoxy)acetic acid]
  IC50: < 100 nM

## CC(C)(O)COC(c1ccc(-c2nccs2)c2oc(N3CC4CC(C3)N4)nc12)C(F)(F)F (centres unmarked) [Example 255]
  IC50: < 100 nM
